Assay results reported in patent US11752162B2, “Compounds and compositions for treating solid tumors by intratumoral administration” (Novartis AG, priority 2017, dated 2023).

Key:
[1] = Adsorption of compounds to aluminum hydroxide in histidine buffer (pH 6.8); format: physicochemical; conditions: histidine buffer pH 6.8, 0.1 mg/mL compound, 37° C. 5 hours
Procedure: The resulting solution was diluted 10-fold with blank histidine buffer to a final compound concentration of 0.1 mg/mL. Diluted solutions were incubated at 37° C. for 5 hours. The samples were centrifuged at 14,000 rpm for 10 minutes to pellet the insoluble. The supernatant (along with an internal standard) was then evaluated by LC-MS/MS using a ballistic gradient (from 5% CH3CN-0.5% formic acid to 95% CH3CN-1.0% formic acid in 3.5 minutes) on a Waters Atlantis dC18 (50 mm×2.1 mm) column at room temperature against a calibration curve prepared at known compound concentrations ranging from 0.005 to 50 μM. The concentration in the supernatant was calculated as % unbound to aluminum hydroxide compared to control; the % bound to aluminum hydroxide was calculated as 100% minus % unbound.

[2] = Pharmacokinetics and mass balance of aluminum and Compound 15 in male Wistar rats (Example 12); format: in vivo, rat; conditions: single i.v. dose equivalent to 0.2 mg of aluminum per animal
Procedure: The pharmacokinetics and mass balance of aluminum and Compound 15 were investigated following a single subcutaneous (s.c.) dose (1 mL) of Suspension H (Compound 15/Alhydrogel® at a 2:1 ratio of aluminum to Compound 15) in male Wistar rats. In addition, the pharmacokinetics of aluminum were investigated following a single intravenous (i.v.) dose (0.5 mL) of 0.4 mg/mL AlCl3.6H2O (equivalent to 0.2 mg of aluminum) in male Wistar rat. Additionally, a control group dosed subcutaneously with saline were evaluated for environmental background aluminum levels.
Metal free/trace metal grade containers/tubes/tips (<1 ng/g Al) were used for sample handling. Aluminum content was analyzed in serum and urine (Frontage Laboratories).
Approximately 0.3 to 0.5 mL of blood samples were collected from carotid artery cannulation at 0 (pre dose), 0.083 (IV only), 0.25 (IV only), 0.5, 3, 6, 24, 72, 168, 336, 504, 672 hours post dose.
Urine was collected from each animal for the following periods: 0 (24 h before dose), 0-24, 24-48, 48-72, 72-96, 96-168 hours post dose, then weekly up to 672 h. The urine samples were stored at −20° C. until analyzed. Feces were collected from each animal and samples were pooled per subject at the end of study at 672 h.
Compound 15 and aluminum levels were analyzed in the serum and urine samples obtained from the s.c. group whereas only aluminum levels were analyzed in the i.v. group.

MC38 tumors = test: Contralateral MC38 colon cancer model, alone or with checkpoint inhibitors; format: in vivo, mouse; conditions: single agents; Compound 15 50 μg i.t. weekly x2, antibodies 10 mg/kg i.p. twice weekly
Procedure: MC38 cells were grown in sterile conditions in a 37° C. incubator with 5% CO2 for two weeks. The cells were cultured in Dulbecco's Modified Eagle's medium (DMEM) media supplemented with 10% FBS, cells were passed every 2-3 days. On the day of injection, cells were harvested (Passage 12) and re-suspended in Hanks' Balanced Salt Solution (HBSS) at a concentration of 2.5×10^6/ml. Cells were Radil tested for mycoplasma and murine viruses.
For each mouse, 0.25×10^6 cells were implanted with subcutaneously injection into right flank using a 28½ g needle ([…]). After the first implantation on day 3 (0.25×10^6) cells are implanted with a subcutaneous injection into left flank using a 28½ g needle (100 μL injection volume). Tumor sizes were assessed three times a week once tumors were palpable. Tumor sizes were determined by using caliper measurements, with tumor volumes calculated using the formula: (Length×Width×Width)/2.
Female C57BL/6 mice bearing the MC38 tumors were randomized into 7 groups (n=9 mice per group) 9 days post tumor cell implantation with an average tumor volume range of 69.09-142.25 mm^3, and the separate groups of tumor bearing mice received treatment as shown in Table 17.
The anti-tumor efficacy of Compound 15 adsorbed to aluminum hydroxide (Alhydrogel®) alone or in combination with checkpoint inhibitors, was determined using a contralateral MC38 colon cancer model. The tumor volume was obtained after two weekly intratumoral injections of Compound 15 adsorbed to aluminum hydroxide (50 μg each) either alone (Group 2), in a double combination with intraperitoneal injection (twice weekly) of an anti-PD-L1 antibody (10 mg/kg) (Group 5), in a double combination with intraperitoneal injection (twice weekly) of an anti-CTLA4 antibody (10 mg/kg) (Group 6), or in a triple combination with intraperitoneal injection (twice weekly) of an anti-PD-L1 antibody (10 mg/kg) and with intraperitoneal injection of an anti-CTLA4 antibody (10 mg/kg) (group 7). For comparison, data was obtained after an intraperitoneal injection (twice weekly) of the anti-PD-L1 antibody (10 mg/kg) alone (Group 3) and after an intraperitoneal injection (twice weekly) of the anti-CTLA4 antibody (10 mg/kg) alone (Group 4). The untreated control data was also obtained (Group 1).
The anti-tumor efficacy of Compound 15 alone (without aluminum hydroxide (Alhydrogel®)) or in combination with checkpoint inhibitors was determined using a contralateral MC38 colon cancer model. […] In addition, the anti-tumor efficacy of Compound 15 adsorbed to aluminum hydroxide (Alhydrogel®) alone or in a triple combination with checkpoint inhibitors was determined using a contralateral MC38 colon cancer model. […]

[3] = test system: MC38 syngeneic colon cancer tumor model; test: MC38 syngeneic colon cancer tumor model, tumor volume at injection site and distant site; format: in vivo, mice; conditions: One-Way ANOVA post hoc Tukey, difference from no treatment
From the text: FIG. 10: A) Efficacy at the intratumor injection site following administration of Compound 15/aluminum hydroxide, an anti-PDL1 antibody or an anti-CTLA4 antibody as single agents or after the administration of combinations of Compound 15/aluminum hydroxide and an anti-PDL1 antibody and/or an anti-CTLA4 antibody.
The effect on tumor volume by administration of a compound of Formula (A), in the presence of aluminum-containing particles, with and without the administration of one or more checkpoint inhibitors is shown in Example 14.
Percent treatment/control (T/C) values for tumor were calculated using the following formula: % T/C=100×ΔT/ΔC if ΔT>0% % Regression=100×ΔT/Tinitial if ΔT<0 where: • T=mean tumor volume of the drug-treated group on the final day of the study; • ΔT=mean tumor volume of the drug-treated group on the final day of the study minus mean tumor volume of the drug-treated group on initial day of dosing; • Tinitial=mean tumor volume of the drug-treated group on initial day of dosing; • C=mean tumor volume of the control group on the final day of the study; • ΔC=mean tumor volume of the control group on the final day of the study minus mean tumor volume of the control group on initial day of dosing. All data were expressed as mean±standard error of the mean (SEM). Delta tumor volume

Q: Which “% Bound” value [1] does the source give for `Cc1cc(OCCOCCOCCC(F)(F)P(=O)(O)O)ccc1CCc1cnc2c(N)nc3cc(CCC(=O)O)ccc3c2c1` [Compound 18, 3-(5-amino-2-(4-(2-(2-(3,3-difluoro-3-phosphonopropoxy)ethoxy)ethoxy)-2-methylphenethyl)benzo[f][1,7]naphthyridin-8-yl)propanoic acid] here?
A: The value was 96.2%.

Q: For `O.O.O.O.O.O.[Al+3].[Cl-].[Cl-].[Cl-]` [AlCl3.6H2O], which AUClast of aluminum [2] is on record?
A: Its AUClast of aluminum is 67400 ng·h/mL.

Q: And the “mean Cmax of aluminum in serum” value [2]?
A: Its value is 26000 ng/mL.

Q: What about the “mean Tmax of aluminum” value [2] of the same molecule?
A: The value was 13.2 min.

Q: And the “mean recovery of aluminum in urine” value [2]?
A: The value was roughly 0.2 mg.

Q: With `Cc1ccc2c(c1)nc(N)c1ncc(CCc3ccc(OCCOCCOCCC(F)(F)P(=O)(O)O)cc3C)cc12` [Compound 1, (3-(2-(2-(4-(2-(5-amino-8-methylbenzo[f][1,7]naphthyridin-2-yl)ethyl)-3-methylphenoxy)ethoxy)ethoxy)-1,1-difluoropropyl)phosphonic acid] as the molecule, how does the “% Bound” value [1] read?
A: Its value is 98.2%.

Q: With `Cc1cc(OCCOCCOCCP(=O)(O)O)ccc1CCc1cnc2c(N)nc3cc(CCC(=O)O)ccc3c2c1` [Compound 20, 3-(5-amino-2-(2-methyl-4-(2-(2-(2-phosphonoethoxy)ethoxy)ethoxy)phenethyl)benzo[f][1,7]naphthyridin-8-yl)propanoic acid] as the molecule, how does the “% Bound” value [1] read?
A: Its value is 97.0%.

Q: For `Cc1cc(OCCCC(F)(F)P(=O)(O)O)ccc1CCc1cnc2c(N)nc3cc(CCC(=O)O)ccc3c2c1` [Compound 17, 3-(5-amino-2-(4-(4,4-difluoro-4-phosphonobutoxy)-2-methylphenethyl)benzo[f][1,7]naphthyridin-8-yl)propanoic acid], which “% Bound” value [1] is on record?
A: The value was 94.5%.

B1: anti-PD-L1: Anti-PD-L1 antibody BAP058-hum13 with heavy chain variable domain of SEQ ID NO:7 and light chain variable domain of SEQ ID NO:17 (antibody, V domains shown)
VH: EVQLVQSGAEVKKPGATVKISCKVSGYTFTSYWMYWVRQARGQRLEWIGRIDPNSGSTKYNEKFKNRFTISRDNSKNTLYLQMNSLRAEDTAVYYCARDYRKGLYAMDYWGQGTTVTVSS
VL: AIQLTQSPSSLSASVGDRVTITCKASQDVGTAVAWYLQKPGQSPQLLIYWASTRHTGVPSRFSGSGSGTDFTFTISSLEAEDAATYYCQQYNSYPLTFGQGTKVEIK
Q: Which results are given for B1?
A: % T/C at the contralateral tumor site (MC38 tumors): 27.02%; % T/C at the primary injection site (MC38 tumors): 56.22%

B2: Anti PD-L1: anti-PDL1 antibody, inhibitor of the PD-L1 ligand, used as single agent or combination partner (antibody, V domains shown)
VH: EVQLVQSGAEVKKPGATVKISCKVSGYTFTSYWMYWVRQARGQRLEWIGRIDPNSGSTKYNEKFKNRFTISRDNSKNTLYLQMNSLRAEDTAVYYCARDYRKGLYAMDYWGQGTTVTVSS
VL: AIQLTQSPSSLSASVGDRVTITCKASQDVGTAVAWYLQKPGQSPQLLIYWASTRHTGVPSRFSGSGSGTDFTFTISSLEAEDAATYYCQQYNSYPLTFGQGTKVEIK
Q: For B2, which “Efficacy at a site distant from the injection site (distant site tumor)” value ([3]; post implant day 19, N=9 per group) is on record?
A: The value was “significantly different”.

Q: And the “Efficacy at the intratumor injection site (treated site tumor)” value ([3]; post implant day 22, N=9 per group)?
A: Its value is “significantly different”.
